By IC50 is commonly meant the concentration at which inhibition is half-maximal. A low value points to greater potency.

From BindingDB's records for doi:10.1021/cb9000102 (Pfizer, 2009) come the findings set out here.

Molecules are shown by their SMILES.

This test concerns the target Biotin carboxylase (Escherichia coli (strain K12), UniProt P24182). Kind of test: ACCase-Coupled Enzyme Assay. The conditions noted are these: pH 8; 23 °C. The protocol:
To each well of the plate consisting of 50 mM Hepes (pH 8.0), 100 mM KCl, 1 mM TCEP, 5 mM MgCl2, 0.1 mg/mL BSA, 0.005% (vol/vol) Tween 20, 30 nM E. coli BC, 50 nM E. coli CT, 50 nM biotinylated E. coli BCCP, and 0.5 unit/mL E. coli purine nucleoside phosphorylase was added. […] Reaction progress was monitored by the increase in absorbance at 360 nm. […] Inhibition data were fit to the standard IC50 equation.
As for `CCCCN(Cc1ccccc1)C(=O)c1cnc(N)o1` [amino-oxazole, 2b], the IC50 came to 1290 nM. In other words, the single-digit micromolar range.

For `Cc1ccccc1CN(Cc1ccc2c(c1)OCCO2)C(=O)c1cnc(N)o1` [amino-oxazole, 2d], the IC50 was found to be 7 nM. This IC50 lies about 180-fold lower than the previous one.

The compound `Cc1nc(-c2ccnc(N)n2)cs1` [amino pyrimidine, 6] yielded an IC50 of 59300 nM.

Turning to `Nc1nccc(C(=O)c2ccccc2)n1` [amino pyrimidine, 7], the midpoint of inhibition, the IC50, lay at 8200 nM.

In the case of `Cc1nc2nc(N)[nH]c2c(O)c1Cc1ccccc1` [amino imidazo-pyridinone, 8], it took 2400 nM to reach half-maximal inhibition (IC50). This IC50 lies about 3.4-fold lower than the previous one.
